Test results as given in ChEMBL document CHEMBL5032528, “Development of novel tetrahydroisoquinoline-hydroxamate conjugates as potent dual SERDs/HDAC inhibitors for the treatment of breast cancer” (Eur J Med Chem, 2021).
Active and inactive are the calls of the source. The calls are words filed in the database; no cut-off is given here.

What was measured:
[1] = molecular target: T1, Estrogen receptor (Homo sapiens) (UniProt P03372); assay: Induction of ERalpha degradation in human MCF7 cells at 0.1 uM measured after 24 hrs by Western blot analysis; type: cell-based
T1 sequence (whole entry): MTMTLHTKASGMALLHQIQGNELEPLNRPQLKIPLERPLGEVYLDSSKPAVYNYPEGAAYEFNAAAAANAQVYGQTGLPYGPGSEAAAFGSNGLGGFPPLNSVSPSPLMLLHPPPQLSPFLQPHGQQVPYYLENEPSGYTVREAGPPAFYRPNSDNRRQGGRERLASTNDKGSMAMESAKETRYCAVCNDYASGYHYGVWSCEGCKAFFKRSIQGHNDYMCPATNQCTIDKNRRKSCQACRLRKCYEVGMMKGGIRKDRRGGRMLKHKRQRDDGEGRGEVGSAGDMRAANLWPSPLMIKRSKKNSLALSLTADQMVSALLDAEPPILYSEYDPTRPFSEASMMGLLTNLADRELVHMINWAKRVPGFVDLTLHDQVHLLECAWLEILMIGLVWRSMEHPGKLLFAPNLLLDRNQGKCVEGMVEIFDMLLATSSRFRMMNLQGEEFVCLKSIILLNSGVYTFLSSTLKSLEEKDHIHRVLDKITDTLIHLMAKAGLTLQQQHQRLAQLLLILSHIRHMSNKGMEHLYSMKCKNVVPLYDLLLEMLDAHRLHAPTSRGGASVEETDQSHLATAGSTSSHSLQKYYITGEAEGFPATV

[2] = molecular target: T2, Protein deacetylase HDAC6 (Homo sapiens, UniProt Q9UBN7); assay: Inhibition of HDAC6 (unknown origin) using Ac-peptide as substrate preincubated for 15 mins followed by substrate addition and measured after 60 mins by fluorescence assay
T2 sequence (Q9UBN7 whole entry): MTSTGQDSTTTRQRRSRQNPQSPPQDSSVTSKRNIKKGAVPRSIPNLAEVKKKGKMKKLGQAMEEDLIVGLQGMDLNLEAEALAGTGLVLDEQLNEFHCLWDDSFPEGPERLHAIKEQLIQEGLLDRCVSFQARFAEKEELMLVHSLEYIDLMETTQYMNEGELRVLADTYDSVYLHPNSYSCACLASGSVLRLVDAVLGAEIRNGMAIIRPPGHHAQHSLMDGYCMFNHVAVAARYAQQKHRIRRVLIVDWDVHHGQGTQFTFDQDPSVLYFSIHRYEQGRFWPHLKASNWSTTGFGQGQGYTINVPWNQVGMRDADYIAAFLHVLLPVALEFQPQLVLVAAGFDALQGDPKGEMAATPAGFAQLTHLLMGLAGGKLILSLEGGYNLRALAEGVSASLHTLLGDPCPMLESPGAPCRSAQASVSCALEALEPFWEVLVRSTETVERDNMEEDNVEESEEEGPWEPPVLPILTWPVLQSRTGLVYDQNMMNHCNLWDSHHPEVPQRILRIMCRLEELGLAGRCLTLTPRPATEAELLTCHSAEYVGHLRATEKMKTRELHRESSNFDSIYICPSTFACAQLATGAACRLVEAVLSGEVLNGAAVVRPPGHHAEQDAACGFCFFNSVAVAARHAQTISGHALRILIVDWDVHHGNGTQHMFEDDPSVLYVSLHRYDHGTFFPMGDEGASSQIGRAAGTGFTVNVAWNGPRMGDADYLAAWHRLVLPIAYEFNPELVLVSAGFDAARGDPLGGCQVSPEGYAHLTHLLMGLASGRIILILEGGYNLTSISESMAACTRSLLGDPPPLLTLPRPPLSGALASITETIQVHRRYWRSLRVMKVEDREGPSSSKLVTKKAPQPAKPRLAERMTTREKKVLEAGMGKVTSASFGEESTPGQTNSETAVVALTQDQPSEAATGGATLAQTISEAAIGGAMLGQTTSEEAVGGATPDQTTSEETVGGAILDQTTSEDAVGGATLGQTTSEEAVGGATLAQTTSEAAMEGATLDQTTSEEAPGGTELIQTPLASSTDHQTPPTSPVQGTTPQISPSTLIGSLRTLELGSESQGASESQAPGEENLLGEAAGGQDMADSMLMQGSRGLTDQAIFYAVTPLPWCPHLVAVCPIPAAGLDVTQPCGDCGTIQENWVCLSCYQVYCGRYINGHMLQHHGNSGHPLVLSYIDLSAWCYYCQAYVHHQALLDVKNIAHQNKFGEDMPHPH

MCF7 [3] = assay: Antiproliferative activity against human MCF7 cells assessed as reduction in cell growth measured after 6 days by WST8 assay; type: functional; conditions: time 6 day
Estrogen receptor = molecular target: T3, Estrogen receptor (Homo sapiens, UniProt P03372); assay: Displacement of fluorescent estradiol from full-length ERalpha (unknown origin) measured after 2 hrs by fluorescence polarization assay
T3 sequence (P03372 whole entry): T1 sequence (whole entry)

Ishikawa [4] = assay: Induction of human ishikawa cells proliferation at 39 to 10000 nM measured after 48 hrs by CCK8 assay; type: functional; conditions: dose 39-10000 nM
[5] = Lipophilicity, logD of compound in n-octanol and phosphate buffer at pH 7.4 after 1.5 hrs by HPLC analysis; type: physicochemical
MDA-MB-231 [6] = assay: Antiproliferative activity against human MDA-MB-231 cells assessed as reduction in cell growth measured after 2 days by CCK8 assay; type: functional, cell-based; conditions: MDA-MB-231, 48 h
[7] = Stability in human plasma assessed as half life; type: ADME, cell-free
MDA-MB-231 [8] = assay: Antimigratory activity against human MDA-MB-231 cells measured after 48 hrs by scratch wound-healing assay; type: functional, cell-based
[9] = molecular target: T1, Estrogen receptor (Homo sapiens); assay: Antagonist activity at ERalpha activity in human ishikawa cells assessed as reduction in PGR mRNA expression at 10 to 300 nM for 24 hrs; type: cell-based; conditions: filed as antagonist, dose 10-300 nM
in vitro = conditions: human, liver microsomes
[10] = molecular target: T1, Estrogen receptor (Homo sapiens); assay: Inhibition of ERalpha signaling in human MCF7 cells at 1 uM measured after 24 hrs by Western blot assay; type: cell-based
MCF7 [11] = assay: Induction of apoptosis in human MCF7 cells at 0.1 uM incubated for 24 hrs by PI staining based flow cytometry analysis; type: functional, cell-based
Histone deacetylase 1 = Histone deacetylase 1 (Homo sapiens, UniProt Q13547); assay: Inhibition of HDAC1 (unknown origin)
Sequence of Histone deacetylase 1 (Q13547 whole entry): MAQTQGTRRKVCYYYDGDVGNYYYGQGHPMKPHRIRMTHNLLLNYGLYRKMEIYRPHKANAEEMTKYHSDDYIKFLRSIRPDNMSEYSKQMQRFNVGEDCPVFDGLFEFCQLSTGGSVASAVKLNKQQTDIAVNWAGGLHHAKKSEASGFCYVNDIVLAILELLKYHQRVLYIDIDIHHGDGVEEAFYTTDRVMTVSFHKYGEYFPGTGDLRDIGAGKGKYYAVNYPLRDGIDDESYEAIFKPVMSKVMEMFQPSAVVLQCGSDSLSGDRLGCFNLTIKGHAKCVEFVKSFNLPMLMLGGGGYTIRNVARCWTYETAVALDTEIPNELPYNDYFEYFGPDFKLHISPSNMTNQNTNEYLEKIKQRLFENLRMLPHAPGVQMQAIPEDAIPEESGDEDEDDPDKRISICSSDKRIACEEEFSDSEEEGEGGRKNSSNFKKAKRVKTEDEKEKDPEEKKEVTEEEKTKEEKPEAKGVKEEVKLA

MCF7 [12] = assay: Antitumor activity against human MCF7 cells xenografted in BALB/c nude mouse assessed as TGI at 5 mg/kg/day, iv administered for 21 days; type: functional; conditions: 504 h, time 21 day, read-out: TGI
Histone deacetylase 4 = Histone deacetylase 4 (Homo sapiens, UniProt P56524); assay: Inhibition of HDAC4 (unknown origin)
Sequence of Histone deacetylase 4 (P56524 whole entry): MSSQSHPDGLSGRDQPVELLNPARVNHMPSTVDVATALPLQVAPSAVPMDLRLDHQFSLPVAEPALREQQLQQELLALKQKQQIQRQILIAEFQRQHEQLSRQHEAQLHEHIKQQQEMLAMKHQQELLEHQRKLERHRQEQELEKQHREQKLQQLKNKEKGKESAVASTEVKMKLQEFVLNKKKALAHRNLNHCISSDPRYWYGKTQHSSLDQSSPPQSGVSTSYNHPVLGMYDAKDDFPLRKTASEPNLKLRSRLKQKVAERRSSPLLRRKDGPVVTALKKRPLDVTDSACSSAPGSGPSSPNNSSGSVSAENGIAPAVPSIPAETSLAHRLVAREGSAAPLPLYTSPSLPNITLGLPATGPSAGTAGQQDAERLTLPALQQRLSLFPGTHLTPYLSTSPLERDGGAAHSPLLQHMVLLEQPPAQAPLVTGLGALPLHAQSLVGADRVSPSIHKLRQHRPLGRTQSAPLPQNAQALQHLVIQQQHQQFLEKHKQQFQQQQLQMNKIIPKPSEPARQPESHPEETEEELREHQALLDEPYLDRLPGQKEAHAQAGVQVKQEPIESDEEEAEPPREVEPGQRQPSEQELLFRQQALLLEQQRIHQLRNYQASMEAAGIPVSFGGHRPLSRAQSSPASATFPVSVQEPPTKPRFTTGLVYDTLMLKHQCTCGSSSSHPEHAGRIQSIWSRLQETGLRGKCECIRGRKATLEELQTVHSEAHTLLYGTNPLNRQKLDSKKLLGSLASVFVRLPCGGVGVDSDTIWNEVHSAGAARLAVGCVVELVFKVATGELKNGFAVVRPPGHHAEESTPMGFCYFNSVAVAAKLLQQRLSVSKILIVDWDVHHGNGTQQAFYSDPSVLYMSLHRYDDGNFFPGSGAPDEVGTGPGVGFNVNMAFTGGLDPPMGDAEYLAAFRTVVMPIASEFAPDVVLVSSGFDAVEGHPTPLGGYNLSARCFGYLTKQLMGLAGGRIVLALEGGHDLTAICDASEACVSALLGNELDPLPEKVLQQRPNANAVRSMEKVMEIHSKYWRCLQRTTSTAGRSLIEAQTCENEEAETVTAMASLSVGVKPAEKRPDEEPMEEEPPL

Mus musculus = assay: In vivo induction of ERalpha degradation in human […] cells xenografted in BALB/c mouse assessed as decrease in ERalpha level at 5 mg/kg/day, iv administered for 21 days by Western blot analysis; type: functional, organism-based; conditions: time 21.0 day
[13] = molecular target: T1, Estrogen receptor (Homo sapiens); assay: Inhibition of ERalpha signaling in human MCF7 cells at 10 uM measured after 24 hrs by Western blot assay; type: cell-based
[14] = Stability in human liver microsomes assessed as half life; type: ADME, Microsome
[15] = molecular target: T1, Estrogen receptor (Homo sapiens); assay: Antagonist activity at ERalpha in human MCF7 cells assessed as reduction in E2-induced GREB1 gene expression incubated for 24 hrs by qRT-PCR analysis; type: cell-based; conditions: filed as antagonist, dose 3-300 nM
[16] = Toxicity in Balb/c mouse xenografted with human MCF7 cells assessed as body weight loss at 5 mg/kg/day, iv administered for 21 days; type: organism-based; conditions: in vivo, 504 h, time 21 day
[17] = Toxicity in Balb/c mouse xenografted with human MCF7 cells assessed as change in organ morphology at 5 mg/kg/day, iv administered for 21 days by H and E staining based analysis; type: organism-based; conditions: in vivo, 504 h, time 21 day
[18] = molecular target: Histone deacetylase (Homo sapiens) (UniProt Q13547+O15379+Q9UBN7+Q92769+Q9UQL6+Q8WUI4+Q9BY41+Q96DB2+P56524+Q9UKV0+Q969S8); assay: Inhibition of HDAC in human MDA-MB-231 cells assessed as increase in alpha tubulin acetylation after 24 hrs by immunofluorescence assay; type: cell-based; conditions: dose 5.0 µM
[19] = molecular target: T1, Estrogen receptor (Homo sapiens); assay: Inhibition of ERalpha signaling in human MCF7 cells measured after 24 hrs by Western blot assay; type: cell-based; conditions: dose 10-10000 nM
[20] = molecular target: T1, Estrogen receptor (Homo sapiens); assay: Antagonist activity at ERalpha in human MCF7 cells assessed as reduction in E2-induced PGR gene expression incubated for 24 hrs by qRT-PCR analysis; type: cell-based; conditions: filed as antagonist, dose 3-300 nM
[21] = molecular target: T4, Protein deacetylase HDAC6 (Homo sapiens) (UniProt Q9UBN7); assay: Inhibition of HDAC6 in human MCF7 cells assessed as increase in intracellular acetylation level of alpha-tubulin after 24 hrs by Western blot analysis; type: cell-based; conditions: dose 10-1000 nM
T4 sequence (whole entry): T2 sequence (Q9UBN7 whole entry)

Ishikawa [22] = assay: Induction of human ishikawa cells proliferation at 300 nM measured after 48 hrs by CCK8 assay; type: functional

SMILES: CC(C)(F)CN1CCc2cc(O)ccc2C1c1ccc(OCCCCCC(=O)NO)cc1 (stereo unspecified)
- Activity [1]: 31%
- IC50 [2]: 65.9 nM
- GI50 (MCF7 [3]; Homo sapiens, MCF7, 144 h): 950 nM
- IC50 (Estrogen receptor): 102 nM

SMILES: CC(C)(F)CN1CCc2cc(O)ccc2C1c1ccc(OC2CN(CC(=O)NO)C2)cc1 (stereo unspecified)
- Activity [1]: 32%
- IC50 [2]: 175 nM
- GI50 (MCF7 [3]; Homo sapiens, MCF7, 144 h): 1820 nM
- IC50 (Estrogen receptor): 78.2 nM

SMILES: CC(C)(F)CN1CCc2cc(O)ccc2C1c1ccc(OCCCCCCC(=O)NO)cc1 (stereo unspecified)
- Activity (Ishikawa [4]): inactive
- logD at 1.5 h [5]: 2.49
- IC50 (MDA-MB-231 [6]): 380 nM
- half-life [7]: 458 min
- Activity (MDA-MB-231 [8]): Active
- Activity [9]: Active
- Activity [1]: 57%
- CLint scaled (in vitro): 132 mL/min/kg
- inhibition [10]: Active
- IC50 [2]: 62.8 nM
- Activity (MCF7 [11]): Active
- IC50 (Histone deacetylase 1): 582 nM
- GI50 (MCF7 [3]; Homo sapiens, MCF7, 144 h): 170 nM
- inhibition in vivo at 5 mg/kg/day (MCF7 [12]): 58%
- IC50 (Histone deacetylase 4): > 1000 nM
- inhibition (Mus musculus): Active
- inhibition [13]: 100%
- half-life [14]: 18.8 min
- Activity [15]: Dose-Dependent Effect
- Activity [16]: Non-Toxic
- IC50 (Estrogen receptor): 90.8 nM
- Activity [17]: Non-Toxic
- inhibition [18]: Dose-Dependent Effect
- inhibition [19]: Dose-Dependent Effect
- Activity [20]: Dose-Dependent Effect
- inhibition [21]: Dose-Dependent Effect

SMILES: CC(C)(F)CN1CCc2cc(O)ccc2C1c1ccc(OCCCOc2ccc(C(=O)NO)cc2)cc1 (stereo unspecified)
- Activity [1]: inactive
- GI50 (MCF7 [3]; Homo sapiens, MCF7, 144 h): 460 nM
- IC50 (Estrogen receptor): 132 nM

SMILES: CC(C)(F)CN1CCc2cc(O)ccc2C1c1ccc(C(=O)NO)cc1 (stereo unspecified)
- Activity [1]: 5%
- GI50 (MCF7 [3]; Homo sapiens, MCF7, 144 h): 230 nM
- IC50 (Estrogen receptor): 96.3 nM

SMILES: O=C(CCCCCCC(=O)Nc1ccccc1)NO [VORINOSTAT]
- GI50 (MCF7 [3]): 1250 nM

SMILES: C[C@]12CC[C@@H]3c4ccc(O)cc4C[C@@H](CCCCCCCCC[S+]([O-])CCCC(F)(F)C(F)(F)F)[C@H]3[C@@H]1CC[C@@H]2O (stereo partly specified) [FULVESTRANT]
- logD at 1.5 h [5]: 6.8
- CLint scaled (in vitro): 1150 mL/min/kg
- GI50 (MCF7 [3]; Homo sapiens, MCF7, 144 h): 540 nM
- half-life [14]: 1.56 min
- Activity (Ishikawa [22]): Active
